# Results as given in patent US20210188843A1, “QUINOLINE COMPOUNDS AND THEIR PREPARATION AND USE AS ANTIMALARIAL AGENTS” (The United States of America,as represented by the …, priority 2018, published 2021).
# Like-named read-outs stand apart in the source and are kept apart here.
# Key:
# [1] = test system: Asexual parasites of P. falciparum strain 3D7; assay: In vitro drug activity on asexual parasites (SYBR Green assay); assay type: cell-based; details: Plasmodium falciparum, read-out: Asexual EC50
# Summary of the method: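 3D7 asexual cultures at 0.5% parasitemia and 2% hematocrit were exposed to drug (DMSO <0.5%) for 72 h under standard culture conditions, in duplicate with no-drug and RBC-only controls. After freeze-thaw lysis, SYBR Green I lysis buffer was added for 30 min at room temperature; fluorescence was read at 490 nm excitation/520 nm emission.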
# [2] = Microsomal stability (rat); assay type: in vitro ADME; details: rat microsomes
# [3] = Solubility pH 7.4; assay type: physicochemical; details: aqueous buffer
# [4] = PAMPA permeability; assay type: in vitro ADME
# [5] = Table 1, P. falciparum 3D7 asexual stage, 72 h
# [6] = Table 1, read-out: Microsomal Stability (rat) T1/2
# [7] = Table 3, read-out: Microsomal Stability (rat) T1/2
# [8] = Table 3, P. falciparum 3D7 asexual stage, 72 h
Compound,"EC50 [1, 5] [nM]","half-life [2, 6] [min]",solubility ([3]; Table 1) [µg/mL],Papp ([4]; Table 1) [×10⁻⁶ cm/s],further results
"Cc1ccc(C#N)cc1-n1c(=N)n(C)c2cnc3ccc(-c4ccnn4C)cc3c21 [Compound 5, 3-(2-imino-3-methyl-8-(1-methyl-1H-pyrazol-5-yl)-2,3-dihydro-1H-imidazo[4,5-c]quinolin-1-yl)-4-methylbenzonitrile]",154,> 30,42.5,219,–
"Cc1ccc(C#N)cc1-n1c(=N)n(C)c2cnc3ccc(-c4cccc(C#N)c4)cc3c21 [Compound 25, 3-(8-(3-cyanophenyl)-2-imino-3-methyl-2,3-dihydro-1H-imidazo[4,5-c]quinolin-1-yl)-4-methylbenzonitrile]",118,> 30,> 41,1430,–
"Cn1c(=N)n(-c2cccc(CN3CCNCC3)c2)c2c3cc(-c4ccc(Cl)cc4)ccc3ncc21 [Compound 85, 8-(4-chlorophenyl)-3-methyl-1-(3-(piperazin-1-ylmethyl)phenyl)-1,3-dihydro-2H-imidazo[4,5-c]quinolin-2-imine]",702,> 30,> 48,11.2,–
Cc1ccc(C#N)cc1-n1/c(=N/S(N)(=O)=O)n(C)c2cnc3ccc(-c4cccc(F)c4)cc3c21 [Compound 116],27.8,17.9,< 1,1070,–
"Cn1c(=N)n(-c2cccc(O)c2)c2c3cc(-c4ccc(Cl)cc4)ccc3ncc21 [Compound 79, 3-(8-(4-chlorophenyl)-2-imino-3-methyl-2,3-dihydro-1H-imidazo[4,5-c]quinolin-1-yl)phenol]",1420,> 30,9.7,42,–
Cn1c(=N)n(-c2cncnc2)c2c3cc(-c4cccc(F)c4)ccc3ncc21,–,–,–,–,"EC50 ([1]; 3D7, 72 h): 169 nM; half-life [2, 7]: > 30 min; solubility ([3]; Table 3): 24.9 µg/mL; Papp ([4]; Table 3): 60.6 ×10⁻⁶ cm/s"
"Cn1c(=N)n(-c2ccc(C(=O)NC3CC3)cc2)c2c3cc(-c4ccc(Cl)cc4)ccc3ncc21 [Compound 65, 4-(8-(4-chlorophenyl)-2-imino-3-methyl-2,3-dihydro-1H-imidazo[4,5-c]quinolin-1-yl)-N-cyclopropylbenzamide]",580,> 30,6.1,10.2,–
"CNCc1cccc(-n2c(=N)n(C)c3cnc4ccc(-c5ccc(Cl)cc5)cc4c32)c1 [Compound 67, 1-(3-(8-(4-chlorophenyl)-2-imino-3-methy-2,3-dihydro-H-imidazo[4,5-c]quinolin-1-yl)phenyl)-N-methylmethanamine]",2990,> 30,> 42,48.1,–
N=c1ccc2cnc3ccc(-c4ccc(Cl)cc4)cc3c2n1-c1cccc(Cl)c1,–,–,–,–,"EC50 ([1]; Table 2, P. falciparum 3D7 asexual stage, 72 h): 178 nM; half-life ([2]; Table 2, read-out: Microsomal Stability (rat) T1/2): > 30 min; solubility ([3]; Table 2): 20.7 µg/mL; Papp ([4]; Table 2): 1240 ×10⁻⁶ cm/s"
"Cc1ccc(C#N)cc1-n1c(=N)n(C)c2cnc3ccc(-c4ccc(Cl)c(C#N)c4)cc3c21 [Compound 30, 2-chloro-5-(1-(5-cyano-2-methylphenyl)-2-imino-3-methyl-2,3-dihydro-1H-imidazo[4,5-c]quinolin-8-yl)benzonitrile]",60.3,> 30,7.3,1210,–
"COc1cc(-c2ccc3ncc4c(c3c2)n(-c2cc(C#N)ccc2C)c(=N)n4C)ccc1Cl [Compound 31, 3-(8-(4-chloro-3-methoxyphenyl)-2-imino-3-methyl-2,3-dihydro-1H-imidazo[4,5-c]quinolin-1-yl)-4-methylbenzonitrile]",27.2,> 30,< 1,433,–
"Cc1ccc(C#N)cc1-n1c(=N)n(C)c2cnc3ccc(-c4ccccc4O)cc3c21 [Compound 86, 3-(8-(2-hydroxyphenyl)-2-imino-3-methyl-2,3-dihydro-1H-imidazo[4,5-c]quinolin-1-yl)-4-methylbenzonitrile]",696,> 30,> 40,7.9,–
"CCC(=O)/N=c1\n(C)c2cnc3ccc(-c4ccc(Cl)cc4)cc3c2n1-c1cc(C#N)ccc1C [Compound 9, (E)-N-(8-(4-chlorophenyl)-1-(5-cyano-2-methylphenyl)-3-methyl-1,3-dihydro-2H-imidazo[4,5-c]quinolin-2-ylidene)propionamide]",38.5,> 30,< 1,526,–
"COc1cccc(-c2ccc3ncc4c(c3c2)n(-c2cc(C#N)ccc2C)c(=N)n4C)c1 [Compound 32, 3-(2-imino-8-(3-methoxyphenyl)-3-methyl-2,3-dihydro-H-imidazo[4,5-c]quinolin-1-yl)-4-methylbenzonitrile]",420,> 30,> 42,678,–
Cc1ccc(-c2ccc3ncc4c(c3c2)n(-c2cncnc2)c(=N)n4C)cc1,–,–,–,–,"EC50 [1, 8]: 230 nM; half-life [2, 7]: > 30 min; solubility ([3]; Table 3): 18.5 µg/mL; Papp ([4]; Table 3): 32.3 ×10⁻⁶ cm/s"
"Cc1ccc(C#N)cc1-n1c(=N)n(C)c2cnc3ccc(-c4cccc(F)c4)cc3c21 [Compound 34, 3-(8-(3-fluorophenyl)-2-imino-3-methyl-2,3-dihydro-1H-imidazo[4,5-c]quinolin-1-yl)-4-methylbenzonitrile]",47.3,> 30,> 40,852,–
"Cc1ccc(C#N)cc1-n1c(=N)n(C)c2cnc3ccc(-c4cnn(C)c4)cc3c21 [Compound 136, 3-(2-imino-3-methyl-8-(1-methyl-1H-pyrazol-4-yl)-2,3-dihydro-1H-imidazo[4,5-c]quinolin-1-yl)-4-methylbenzonitrile]",56.1,> 30,40.4,89.5,–
"Cc1cc(C#N)c(C#N)cc1-n1c(=N)n(C)c2cnc3ccc(-c4ccc(Cl)cc4)cc3c21 [Compound 135, 4-(8-(4-chlorophenyl)-2-imino-3-methyl-2,3-dihydro-1H-imidazo[4,5-c]quinolin-1-yl)-5-methylphthalonitrile]",27,> 30,< 1,397,–
"Cc1ccc(C#N)cc1-n1/c(=N/C(=O)OC(C)(C)C)n(C)c2cnc3ccc(-c4ccc(Cl)cc4)cc3c21 [Compound 88, tert-butyl (E)-(8-(4-chlorophenyl)-1-(5-cyano-2-methylphenyl)-3-methyl-1,3-dihydro-2H-imidazo[4,5-c]quinolin-2-ylidene)carbamate]",1620,> 30,< 1,128,–
Cc1ccc(-c2ccc3ncc4c(c3c2)n(-c2cncnc2)c(=N)n4C)cn1,–,–,–,–,"EC50 [1, 8]: 190 nM; half-life [2, 7]: > 30 min; solubility ([3]; Table 3): > 54 µg/mL; Papp ([4]; Table 3): 136 ×10⁻⁶ cm/s"
"Cc1ccc(Cl)cc1-n1c(=N)n(C)c2cnc3ccc(-c4ccc(Cl)cc4)cc3c21 [Compound 29, 1-(5-chloro-2-methylphenyl)-8-(4-chlorophenyl)-3-methyl-1,3-dihydro-2H-imdazo[4,5-c]quinolin-2-imine]",136,> 30,< 1,1680,–
"Cc1ccc(C#N)cc1-n1c(=N)n(C)c2cnc3ccc(-c4ccc5[nH]ncc5c4)cc3c21 [Compound 107, 3-(2-imino-8-(1H-indazol-5-yl)-3-methyl-2,3-dihydro-1H-imidazo[4,5-c]quinolin-1-yl)-4-methylbenzonitrile]",12.9,22.9,> 42,22.6,–
"COC(=O)/N=c1\n(C)c2cnc3ccc(-c4ccc(C)cc4)cc3c2n1-c1cc(C#N)c(N2CCN(C)CC2)cc1C [Compound 147, Methyl (E)-(1-(5-cyano-2-methyl-4-(4-methylpiperazin-1-yl)phenyl)-3-methyl-8-(p-tolyl)-1,3-dihydro-2H-imidazo[4,5-c]quinolin-2-ylidene)carbamate]",28.4,24.4,4.3,656,–
"Cc1ccc(C#N)cc1-n1/c(=N/C#N)n(C)c2cnc3ccc(-c4ccc(N)nc4)cc3c21 [Compound 4, (E)-N-(8-(6-aminopyridin-3-yl)-1-(5-cyano-2-methylphenyl)-3-methyl-1,3-dihydro-2H-imidazo[4,5-c]quinolin-2-ylidene)cyanamide]",11.9,> 30,3.7,34.1,–
"Cc1cc(N2CCOCC2)c(C#N)cc1-n1c(=N)n(C)c2cnc3ccc(-c4ccc(Cl)cc4)cc3c21 [Compound 23, 5-(8-(4-chlorophenyl)-2-imino-3-methyl-2,3-dihydro-1H-imidazo[4,5-c]quinolin-1-yl)-4-methyl-2-morpholinobenzonitrile]",63.9,> 30,< 1,340,–
"Cn1c(=N)n(C2CC(N3CCOCC3)C2)c2c3cc(-c4ccc(Cl)cc4)ccc3ncc21 (stereo not drawn) [Compound 58, 8-(4-chlorophenyl)-3-methyl-1-(3-morpholinocyclobutyl)-1,3-dihydro-2H-imidazo[4,5-c]quinolin-2-imine]",2670,> 30,> 44,816,–
"Cc1ccc(C#N)cc1-n1c(=N)n(C)c2cnc3ccc(-c4ccc(F)cc4)cc3c21 [Compound 12, 3-(8-(4-fluorophenyl)-2-imino-3-methyl-2,3-dihydro-1H-imidazo[4,5-c]quinolin-1-yl)-4-methylbenzonitrile]",64.4,> 30,3.9,1030,–
